From patent US8415359B2, “Phenylpyrrole derivative” (Daiichi Sankyo Company, Limited, priority 2008, dated 2013)

Biological target: T1, human pancreatic GK (human glucokinase variant 1, GST-fused protein) (Homo sapiens, UniProt P35557)
T1 construct: made in house; host or cells: Escherichia coli (such as BL21 or JM109)
T1 sequence (P35557 1-465): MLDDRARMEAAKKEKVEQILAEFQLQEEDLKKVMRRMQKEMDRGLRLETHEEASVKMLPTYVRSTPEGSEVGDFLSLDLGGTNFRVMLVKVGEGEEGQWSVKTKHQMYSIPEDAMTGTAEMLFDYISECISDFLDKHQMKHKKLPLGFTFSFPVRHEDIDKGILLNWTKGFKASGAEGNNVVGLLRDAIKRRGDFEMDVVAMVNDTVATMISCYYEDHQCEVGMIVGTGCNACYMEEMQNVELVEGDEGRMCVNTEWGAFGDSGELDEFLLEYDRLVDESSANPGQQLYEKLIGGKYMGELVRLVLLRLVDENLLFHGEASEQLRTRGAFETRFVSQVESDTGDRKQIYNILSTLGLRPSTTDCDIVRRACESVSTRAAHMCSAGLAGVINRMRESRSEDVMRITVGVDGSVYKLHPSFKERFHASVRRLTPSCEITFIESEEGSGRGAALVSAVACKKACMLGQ
Test: GK activity test (GK activation rate)
Format: biochemical
Details: test compound 1 μM; glucose 5 mM; 30 min at room temperature; absorbance at 340 nm with test compound / without test compound
Procedure: cDNA encoding human pancreatic GK polypeptide (GenBank Accession No. NM_000162, human glucokinase variant 1) was cloned from a human cDNA library by polymerase chain reaction (PCR), and introduced into a glutathione S-transferase (GST)-fused protein expression vector (GEX4T, GE Healthcare Bioscience). The vector was introduced into Escherichia coli (such as BL21 or JM109, Invitrogen), and the transformed E. coli was cultured overnight at 37° C. followed by recovery of the cells. After freezing and thawing the recovered cells, the cells were suspended in phosphate buffer containing Triton-X at a final concentration of 1% followed by disrupting the cells with an ultrasonic homogenizer. The supernatant obtained by low-speed centrifugation treatment of the homogenate (10,000×g, 30 minutes) was further subjected to high-speed centrifugation (100,000×g, 10 minutes) followed by recovering the supernatant and purifying the fused protein using a GST fused protein purification system (Bulk GST Purification Module, GE Healthcare Bioscience). The GK fused protein was divided into smaller aliquots and stored at −80° C.
GK activity was measured using the GK purified in (1) above. More specifically, an enzyme solution was prepared by adding the purified GK of (1) above and glucose-6-phosphate dehydrogenase (Sigma) to solution 1 of a glucose assay kit (D-Glucose UV Method, Roche Diagnostics). The enzyme solution, a test compound diluent and glucose (final concentration: 5 mM) were mixed in a 96-well ELISA plate, and allowed to react for 30 minutes at room temperature. Following completion of the reaction, absorbance at a wavelength of 340 nm was measured using SpectraMax Plus (Molecular Probe). Furthermore, unreacted (when glucose was not added) absorbance was used for the background.
GK activation rates were indicated with values represented by the following numerical formula: (absorbance after reacting for 30 minutes when test compound added)/(absorbance after reacting for 30 minutes when test compound not added).

Compound | GK Activation Rate
COC[C@H](C)Oc1cc(Oc2ccc(S(C)(=O)=O)cc2)cc(-c2ccc(-c3nccs3)[nH]2)c1 [Example 1, 2-(5-{3-[(1S)-2-Methoxy-1-methylethoxy]-5-[4-(methylsulfonyl)phenoxy]phenyl}-1H-pyrrol-2-yl)-1,3-thiazole] | 2.0
C[C@@H](CO)Oc1cc(Oc2ccc(S(C)(=O)=O)cc2)cc(-c2ccc(-c3nccs3)[nH]2)c1 [Example 2, (2S)-2-{3-[4-(Methylsulfonyl)phenoxy]-5-[5-(1,3-thiazol-2-yl)-1H-pyrrol-2-yl]phenoxy}propan-1-ol] | 1.9
COC[C@H](C)Oc1cc(Oc2ccc(S(C)(=O)=O)cc2)cc(-c2ccc(-c3ncc(C)s3)[nH]2)c1 [Example 3, 2-(5-{3-[(1S)-2-Methoxy-1-methylethoxy]-5-[4-(methylsulfonyl)phenoxy]phenyl}-1H-pyrrol-2-yl)-5-methyl-1,3-thiazole] | 1.9
COC[C@H](C)Oc1cc(Oc2ccc(S(C)(=O)=O)cc2)cc(-c2ccc(C(C)=O)[nH]2)c1 [Example 15, 1-(5-{3-[(1S)-2-Methoxy-1-methylethoxy]-5-[4-(methylsulfonyl)phenoxy]phenyl}-1H-pyrrol-2-yl)ethanone] | 1.6
COC[C@H](C)Oc1cc(Oc2ccc(S(C)(=O)=O)cc2)cc(-c2ccc(C3=NCCO3)[nH]2)c1 [Example 20, 2-(5-{3-[(1S)-2-Methoxy-1-methylethoxy]-5-[4-(methylsulfonyl)phenoxy]phenyl}-1H-pyrrol-2-yl)-4,5-dihydro-1,3-oxazole] | 2.0
C[C@@H](CO)Oc1cc(Oc2ccc(S(C)(=O)=O)cc2)cc(-c2ccc(C3=NCCO3)[nH]2)c1 [Example 21, (2S)-2-{3-[5-(4,5-Dihydro-1,3-oxazol-2-yl)-1H-pyrrol-2-yl]-5-[4-(methylsulfonyl)phenoxy]phenoxy}propan-1-ol] | 2.0
COC[C@H](C)Oc1cc(Oc2ccc(S(C)(=O)=O)cc2)cc(-c2ccc(C3=NCCS3)[nH]2)c1 [Example 25, 2-(5-{3-[(1S)-2-Methoxy-1-methylethoxy]-5-[4-(methylsulfonyl)phenoxy]phenyl}-1H-pyrrol-2-yl)-4,5-dihydro-1,3-thiazole] | 2.0
C[C@@H](CO)Oc1cc(Oc2ccc(S(C)(=O)=O)cc2)cc(-c2ccc(C3=NCCS3)[nH]2)c1 [Example 26, (2S)-2-{3-[5-(4,5-Dihydro-1,3-thiazol-2-yl)-1H-pyrrol-2-yl]-5-[4-(methylsulfonyl)phenoxy]phenoxy}propan-1-ol] | 2.3
COC[C@H](C)Oc1cc(Oc2ccc(S(C)(=O)=O)cc2)cc(-c2ccc(C3=NCC(CO)O3)[nH]2)c1 (stereo partly drawn) [Example 29, [2-(5-{3-[(1S)-2-Methoxy-1-methylethoxy]-5-[4-(methylsulfonyl)phenoxy]phenyl}-1H-pyrrol-2-yl)-4,5-dihydro-1,3-oxazol-5-yl]methanol] | 2.0
COC[C@H](C)Oc1cc(Oc2ccc(S(C)(=O)=O)cc2)cc(-c2ccc(C3=NC[C@H](C)O3)[nH]2)c1 [Example 31, (5S)-2-(5-{3-[(1S)-2-Methoxy-1-methylethoxy]-5-[4-(methylsulfonyl)phenoxy]phenyl}-1H-pyrrol-2-yl)-5-methyl-4,5-dihydro-1,3-oxazole] | 2.0
C[C@H]1CN=C(c2ccc(-c3cc(Oc4ccc(S(C)(=O)=O)cc4)cc(O[C@@H](C)CO)c3)[nH]2)O1 [Example 32, (2S)-2-(3-{5-[(5S)-5-Methyl-4,5-dihydro-1,3-oxazol-2-yl]-1H-pyrrol-2-yl}-5-[4-(methylsulfonyl)phenoxy]phenoxy)propan-1-ol] | 2.0
COC[C@H](C)Oc1cc(Oc2ccc(S(C)(=O)=O)cc2)cc(-c2ccc(C3=NC[C@@H](C)O3)[nH]2)c1 [Example 33, (5R)-2-(5-{3-[(1S)-2-Methoxy-1-methylethoxy]-5-[4-(methylsulfonyl)phenoxy]phenyl}-1H-pyrrol-2-yl)-5-methyl-4,5-dihydro-1,3-oxazole] | 1.7
